Legend:
Conditions in all cases: main component drawn
[1] = tested on: S. pneumoniae D39V; test: Bliss interaction score (quartile over a dose matrix) (fitness difference); higher = more antagonism (negative = synergy)
Procedure, shortened: (§1)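 Fitness is OD595 at stationary-phase entry relative to the plate's robust no-drug mean, capped at 1. Single-drug fitness was inferred from combinations. The Bliss score is observed minus product-expected fitness, summarised by quartiles over technical, biological and donor/recipient replicates.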

[2] = tested on: S. aureus Newman; test: as above
Procedure, shortened: as §1

[3] = tested on: B. subtilis 168; test: as above
Procedure, shortened: as §1

[4] = tested on: S. aureus DSM 20231; test: as above
Procedure, shortened: as §1

[5] = tested on: S. aureus Newman; test: fitness (endpoint OD595 vs no drug) (fraction); higher = more growth
Procedure, shortened: (§2)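 Volumes were 30 µl per well, or 55 µl for S. pneumoniae, in 384-well plates inoculated at OD595 0.01. Media were TSB, LB Lennox or CY at 37 °C, and OD595 was read every 30 min for 14 h with first-reading background subtraction. Fitness is the ratio of optical density at stationary-phase entry to the robust mean of no-drug controls. That ratio is capped at 1.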

[6] = tested on: B. subtilis 168; test: as above
Procedure, shortened: as §2
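Wherever Bliss interaction score (quartile over a dose matrix) is given: first quartile when negative (synergy) and third quartile when positive (antagonism).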

CC[C@H](C)[C@H](N)C1=N[C@H](C(=O)N[C@@H](CC(C)C)C(=O)N[C@H](CCC(=O)O)C(=O)N[C@H](C(=O)N[C@H]2CCCCNC(=O)[C@H](CC(N)=O)NC(=O)[C@@H](CC(=O)O)NC(=O)[C@H](Cc3cnc[nH]3)NC(=O)[C@@H](Cc3ccccc3)NC(=O)[C@H]([C@@H](C)CC)NC(=O)[C@@H](CCCN)NC2=O)[C@@H](C)CC)CS1 [Bacitracin] + COc1cccc2c1C(=O)c1c(O)c3c(c(O)c1C2=O)C[C@@](O)(C(=O)CO)C[C@@H]3O[C@H]1C[C@H](N)[C@H](O)[C@H](C)O1 [Doxorubicin]
Conditions | Bliss interaction score
[1] | -0.0704
[2] | 0.0938
[3] | 0.0797
[4] | 0.115

fitness
Conditions | partner 0.625 µg/mL | partner 1.25 µg/mL | partner 2.5 µg/mL
[5], first compound 18.75 µg/mL | 0.607 | 0.598 | 0.513
[5], first compound 75 µg/mL | 0.0711 | 0.0343 | 0.0074
[6], first compound 37.5 µg/mL | 0.889 | 0.851 | 0.686
[6], first compound 75 µg/mL | 0.827 | 0.792 | –
[6], first compound 150 µg/mL | 0.691 | 0.653 | –

CC[C@H](C)[C@H](N)C1=N[C@H](C(=O)N[C@@H](CC(C)C)C(=O)N[C@H](CCC(=O)O)C(=O)N[C@H](C(=O)N[C@H]2CCCCNC(=O)[C@H](CC(N)=O)NC(=O)[C@@H](CC(=O)O)NC(=O)[C@H](Cc3cnc[nH]3)NC(=O)[C@@H](Cc3ccccc3)NC(=O)[C@H]([C@@H](C)CC)NC(=O)[C@@H](CCCN)NC2=O)[C@@H](C)CC)CS1 [Bacitracin] + CCN(CC)CCOC(=O)c1ccc(N)cc1 [Procaine]
Conditions | Bliss interaction score
[1] | -0.0511
[2] | 0.0965
[3] | 0.116
[4] | 0.0191

fitness
Conditions | partner 85.5 µg/mL | partner 171 µg/mL | partner 342 µg/mL
[5], first compound 18.75 µg/mL | 0.792 | 0.738 | 0.749
[5], first compound 75 µg/mL | 0.0486 | 0.0139 | 0.0176
[6], first compound 37.5 µg/mL | 0.88 | 0.939 | 0.874
[6], first compound 75 µg/mL | 0.899 | 0.879 | 0.871
[6], first compound 150 µg/mL | 0.753 | 0.752 | 0.619

CC[C@H](C)[C@H](N)C1=N[C@H](C(=O)N[C@@H](CC(C)C)C(=O)N[C@H](CCC(=O)O)C(=O)N[C@H](C(=O)N[C@H]2CCCCNC(=O)[C@H](CC(N)=O)NC(=O)[C@@H](CC(=O)O)NC(=O)[C@H](Cc3cnc[nH]3)NC(=O)[C@@H](Cc3ccccc3)NC(=O)[C@H]([C@@H](C)CC)NC(=O)[C@@H](CCCN)NC2=O)[C@@H](C)CC)CS1 [Bacitracin] + CN1C2=CC=CC=C2N=C3C1=CC=CC3=O [Pyocyanin]
Conditions | Bliss interaction score
[1] | 0.0487
[2] | -0.0473
[3] | 0.0566
[4] | 0.0748

fitness
Conditions | first compound 18.75 µg/mL | first compound 37.5 µg/mL | first compound 75 µg/mL | first compound 150 µg/mL
[5], partner 1.25 µg/mL | 0.574 | 0.208 | 0.04 | –
[5], partner 2.5 µg/mL | 0.496 | 0.18 | 0.0276 | –
[5], partner 5 µg/mL | 0.281 | 0.148 | 0.0716 | –
[6], partner 1.25 µg/mL | – | 0.9 | 0.931 | 0.8
[6], partner 2.5 µg/mL | – | 0.839 | 0.853 | 0.682
[6], partner 5 µg/mL | – | 0.614 | 0.594 | 0.419

CC[C@H](C)[C@H](N)C1=N[C@H](C(=O)N[C@@H](CC(C)C)C(=O)N[C@H](CCC(=O)O)C(=O)N[C@H](C(=O)N[C@H]2CCCCNC(=O)[C@H](CC(N)=O)NC(=O)[C@@H](CC(=O)O)NC(=O)[C@H](Cc3cnc[nH]3)NC(=O)[C@@H](Cc3ccccc3)NC(=O)[C@H]([C@@H](C)CC)NC(=O)[C@@H](CCCN)NC2=O)[C@@H](C)CC)CS1 [Bacitracin] + CN(N=O)C(=O)N[C@@H](C=O)[C@@H](O)[C@H](O)[C@H](O)CO [Streptozotocin]
Conditions | Bliss interaction score
[1] | -0.0625
[2] | -0.104
[3] | 0.0453
[4] | -0.0576

fitness
Conditions | partner 0.15 µg/mL | partner 0.3 µg/mL | partner 0.6 µg/mL
[5], first compound 18.75 µg/mL | 0.59 | 0.526 | 0.245
[5], first compound 37.5 µg/mL | 0.124 | 0.0706 | 0.0163
[5], first compound 75 µg/mL | 0.0279 | 0.0183 | 0.0064
[6], first compound 37.5 µg/mL | 0.913 | 0.856 | 0.906
[6], first compound 75 µg/mL | 0.806 | 0.857 | 0.876

CC[C@H](C)[C@H](N)C1=N[C@H](C(=O)N[C@@H](CC(C)C)C(=O)N[C@H](CCC(=O)O)C(=O)N[C@H](C(=O)N[C@H]2CCCCNC(=O)[C@H](CC(N)=O)NC(=O)[C@@H](CC(=O)O)NC(=O)[C@H](Cc3cnc[nH]3)NC(=O)[C@@H](Cc3ccccc3)NC(=O)[C@H]([C@@H](C)CC)NC(=O)[C@@H](CCCN)NC2=O)[C@@H](C)CC)CS1 [Bacitracin] + CN[C@@H]1[C@H](O[C@H]2[C@H](O[C@H]3[C@H](O)[C@@H](O)[C@H](N=C(N)N)[C@@H](O)[C@@H]3N=C(N)N)O[C@@H](C)[C@]2(O)C=O)O[C@@H](CO)[C@H](O)[C@H]1O [Streptomycin]
Conditions | Bliss interaction score
[1] | -0.146
[2] | -0.323
[3] | -0.234
[4] | -0.0869

fitness
Conditions | first compound 18.75 µg/mL | first compound 37.5 µg/mL | first compound 75 µg/mL | first compound 150 µg/mL
[5], partner 1 µg/mL | – | 0.0508 | 0.0138 | –
[5], partner 2 µg/mL | – | 0.0177 | 0.0112 | –
[5], partner 4 µg/mL | 0.0347 | 0.0049 | 0.0045 | –
[6], partner 2 µg/mL | – | 0.908 | 0.807 | –
[6], partner 8 µg/mL | – | 0.0363 | 0.0188 | 0.0134
